Paper PMC5630020 (Genes & Development, 2017)

Assays:
[1] = molecular target: T1, MglA–SspA complex (heterodimer) (Francisella tularensis, UniProt Q5NFG1+Q5NHJ6)
[2] = molecular target: T1, MglA–SspA complex (heterodimer); assay: biochemical

T1 sequence (Q5NFG1 1-205): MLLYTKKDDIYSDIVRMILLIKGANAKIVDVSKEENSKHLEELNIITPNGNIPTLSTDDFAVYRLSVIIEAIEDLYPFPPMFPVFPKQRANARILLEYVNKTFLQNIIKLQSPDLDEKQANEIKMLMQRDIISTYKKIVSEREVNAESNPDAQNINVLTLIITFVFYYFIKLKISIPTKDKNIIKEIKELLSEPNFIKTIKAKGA
T1 sequence (Q5NHJ6 1-210): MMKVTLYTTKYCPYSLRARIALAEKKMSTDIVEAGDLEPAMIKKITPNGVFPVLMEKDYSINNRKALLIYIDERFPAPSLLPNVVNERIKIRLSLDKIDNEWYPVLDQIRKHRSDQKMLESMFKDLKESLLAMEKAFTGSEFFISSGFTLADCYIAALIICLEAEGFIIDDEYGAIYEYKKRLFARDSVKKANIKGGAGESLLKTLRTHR

Nc1nc2c(ncn2[C@@H]2O[C@H](COP(=O)(O)OP(=O)(O)OP(=O)(O)O)[C@@H](O)[C@H]2O)c(=O)[nH]1 [GTP]
DRaCALA competition against 32P-ppGpp [1]: GTP competed weakly, and ATP, CTP, and UTP showed no detectable competition

Nc1nc2c(ncn2[C@@H]2O[C@H](COP(=O)(O)OP(=O)(O)O)[C@@H](OP(=O)(O)OP(=O)(O)O)[C@H]2O)c(=O)[nH]1 [ppGpp]
Kd [2]: ~12 µM
